Earlier results on one compound are cited in patent US9625448B2, “Double caged GABA compounds, bis-CNB-GABA” (The Trustees of Princeton University, priority 2014, dated 2017).

For the series the following is noted: Gee et al., 1994; cited from earlier work.

SMILES strings stand for the structures.

As to `NCCCC(=O)OC(C(=O)O)c1ccccc1[N+](=O)[O-]` (stereo not shown) [mono-CNB-GABA], the solubility entry was “over 50 mM”.
